Measured values as given in ChEMBL document CHEMBL1139487, “Discovery of corticotropin releasing factor 2 receptor selective sauvagine analogues for treatment of skeletal muscle atrophy” (J Med Chem, 2005).
Square brackets hold non-standard residues; d marks the D form. Peptide text beside a SMILES is read from it. 1Nal = N[C@@H](Cc1cccc2ccccc12)C(=O)O; pGlu = O=C1CC[C@@H](C(=O)O)N1

How the values were obtained:
Mus musculus = species: Mus musculus; assay: Selectivity ratio of EC50s for mouse corticotropin releasing factor receptors 1 and 2
[1] = biological target: Corticotropin-releasing factor receptor 2 (Mus musculus) (UniProt Q60748); assay: In vitro agonistic activity against mouse corticotropin releasing factor 2 receptor; format: functional
[2] = biological target: T1, Corticotropin-releasing factor receptor 1 (Mus musculus) (UniProt P35347); assay: In vitro agonistic activity against mouse corticotropin releasing factor 1 receptor; format: functional
T1 sequence (whole entry): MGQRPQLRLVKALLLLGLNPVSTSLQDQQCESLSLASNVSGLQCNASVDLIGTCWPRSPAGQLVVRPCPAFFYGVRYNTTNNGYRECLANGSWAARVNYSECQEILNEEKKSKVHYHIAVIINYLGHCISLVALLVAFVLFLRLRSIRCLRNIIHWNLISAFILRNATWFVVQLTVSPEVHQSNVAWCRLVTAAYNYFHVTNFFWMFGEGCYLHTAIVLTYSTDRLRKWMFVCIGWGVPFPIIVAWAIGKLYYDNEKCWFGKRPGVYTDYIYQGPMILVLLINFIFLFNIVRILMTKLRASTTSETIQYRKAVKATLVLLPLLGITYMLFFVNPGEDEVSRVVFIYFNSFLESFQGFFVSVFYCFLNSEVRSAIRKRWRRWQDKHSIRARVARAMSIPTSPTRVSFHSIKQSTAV

[3] = biological target: Corticotropin-releasing factor receptor 2 (Mus musculus, UniProt Q60748); assay: In vitro effective concentration for mouse corticotropin releasing factor 2 receptor
[4] = biological target: T2, Corticotropin-releasing factor receptor 1 (Mus musculus, UniProt P35347); assay: In vitro effective concentration for mouse corticotropin releasing factor 1 receptor
T2 sequence (P35347 whole entry): T1 sequence (whole entry)

Sequence of Corticotropin-releasing factor receptor 2 (Mus musculus) (Q60748 whole entry): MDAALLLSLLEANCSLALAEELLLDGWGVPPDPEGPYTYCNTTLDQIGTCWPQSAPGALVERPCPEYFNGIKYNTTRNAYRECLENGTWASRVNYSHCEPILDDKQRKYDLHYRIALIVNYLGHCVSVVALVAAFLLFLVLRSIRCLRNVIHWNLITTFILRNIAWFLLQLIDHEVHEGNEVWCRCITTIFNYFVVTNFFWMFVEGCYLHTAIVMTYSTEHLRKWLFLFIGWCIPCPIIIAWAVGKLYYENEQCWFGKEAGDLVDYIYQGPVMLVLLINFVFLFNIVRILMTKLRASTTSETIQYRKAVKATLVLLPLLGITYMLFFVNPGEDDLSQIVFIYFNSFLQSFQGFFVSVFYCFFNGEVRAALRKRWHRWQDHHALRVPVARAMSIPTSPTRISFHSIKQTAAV
Sequence of Corticotropin-releasing factor receptor 2 (Q60748 whole entry): as above

SMILES	Selectivity (Mus musculus)	Emax [1] [%]	Emax [2] [%]	EC50 [3] [nM]	EC50 [4] [nM]
CC[C@H](C)[C@H](NC(=O)[C@@H](NC(=O)[C@H](CC(=O)O)NC(=O)[C@H](CC(C)C)NC(=O)[C@H](CC(C)C)NC(=O)[C@H](CC(C)C)NC(=O)[C@H](CCCN=C(N)N)NC(=O)[C@H](CC(N)=O)NC(=O)[C@H](CC(N)=O)NC(=O)[C@H](C)NC(=O)[C@H](C)NC(=O)[C@H](CCC(N)=O)NC(=O)[C@H](CCC(N)=O)NC(=O)[C@H](CCCCN)NC(=O)[C@H](CCC(=O)O)NC(=O)[C@H](CCCCN)NC(=O)[C@H](CCC(=O)O)NC(=O)[C@H](CCC(N)=O)NC(=O)[C@H](CCCCN)NC(=O)[C@H](CCC(=O)O)NC(=O)[C@@H](NC(=O)[C@H](CCC(=O)O)NC(=O)[C@@H](NC(=O)[C@H](CCSC)NC(=O)[C@H](CCCCN)NC(=O)[C@H](CCCN=C(N)N)NC(=O)[C@H](CC(C)C)NC(=O)[C@H](CC(C)C)NC(=O)[C@@H](NC(=O)[C@H](CC(C)C)NC(=O)[C@@H]1CCCN1C(=O)[C@H](CC(C)C)NC(=O)[C@H](CC(=O)O)NC(=O)[C@@H](NC(=O)[C@H](CO)NC(=O)[C@@H](NC(=O)[C@@H]1CCCN1C(=O)[C@@H]1CCCN1C(=O)CNC(=O)[C@@H]1CCC(=O)N1)[C@@H](C)CC)[C@@H](C)CC)C(C)C)[C@@H](C)CC)[C@@H](C)CC)[C@@H](C)O)C(=O)O	48	94	95		
CC[C@H](C)[C@H](NC(=O)[C@@H](NC(=O)[C@H](CC(=O)O)NC(=O)[C@H](CC(C)C)NC(=O)[C@H](CC(C)C)NC(=O)[C@H](CC(C)C)NC(=O)[C@H](CCCN=C(N)N)NC(=O)[C@H](CC(N)=O)NC(=O)[C@H](CC(N)=O)NC(=O)[C@H](C)NC(=O)[C@H](C)NC(=O)[C@H](CCC(N)=O)NC(=O)[C@H](CCC(N)=O)NC(=O)[C@H](CCCCN)NC(=O)[C@H](CCC(=O)O)NC(=O)[C@H](CCCCN)NC(=O)[C@H](CCC(=O)O)NC(=O)[C@H](CCC(N)=O)NC(=O)[C@H](CCCCN)NC(=O)[C@H](CCC(=O)O)NC(=O)[C@@H](NC(=O)[C@H](CCC(=O)O)NC(=O)[C@@H](NC(=O)[C@H](CCSC)NC(=O)[C@H](CCCCN)NC(=O)[C@H](CCCN=C(N)N)NC(=O)[C@H](CC(C)C)NC(=O)[C@H](CC(C)C)NC(=O)[C@H](Cc1cccc2ccccc12)NC(=O)[C@H](CCC(N)=O)NC(=O)[C@@H]1CCCN1C(=O)[C@H](CC(C)C)NC(=O)[C@H](CC(=O)O)NC(=O)[C@@H](NC(=O)[C@H](CO)NC(=O)[C@@H](NC(=O)[C@@H]1CCCN1C(=O)[C@@H]1CCCN1C(=O)CNC(=O)[C@@H]1CCC(=O)N1)[C@@H](C)CC)[C@@H](C)CC)[C@@H](C)CC)[C@@H](C)CC)[C@@H](C)O)C(=O)O ([pGlu]GPPISIDLPQ[1Nal]LLRKMIEIEKQEKEKQQAANNRLLLDTI-OH)	26	100	100		
CC[C@H](C)[C@H](NC(=O)[C@@H](NC(=O)[C@H](CC(=O)O)NC(=O)[C@H](CC(C)C)NC(=O)[C@H](CC(C)C)NC(=O)[C@H](CC(C)C)NC(=O)[C@H](CCCN=C(N)N)NC(=O)[C@H](CC(N)=O)NC(=O)[C@H](CC(N)=O)NC(=O)[C@H](C)NC(=O)[C@H](C)NC(=O)[C@H](CCC(N)=O)NC(=O)[C@H](CCC(N)=O)NC(=O)[C@H](CCCCN)NC(=O)[C@H](CCC(=O)O)NC(=O)[C@H](CCCCN)NC(=O)[C@H](CCC(=O)O)NC(=O)[C@H](CCC(N)=O)NC(=O)[C@H](CCCCN)NC(=O)[C@H](CCC(=O)O)NC(=O)[C@@H](NC(=O)[C@H](CCC(=O)O)NC(=O)[C@@H](NC(=O)[C@H](CCSC)NC(=O)[C@H](CCCCN)NC(=O)[C@H](CCCN=C(N)N)NC(=O)[C@H](CC(C)C)NC(=O)[C@H](CC(C)C)NC(=O)[C@H](CCC(N)=O)NC(=O)[C@H](CC(C)C)NC(=O)[C@@H]1CCCN1C(=O)[C@H](CC(C)C)NC(=O)[C@H](CC(=O)O)NC(=O)[C@@H](NC(=O)[C@H](CO)NC(=O)[C@@H](NC(=O)[C@@H]1CCCN1C(=O)[C@@H]1CCCN1C(=O)CNC(=O)[C@@H]1CCC(=O)N1)[C@@H](C)CC)[C@@H](C)CC)[C@@H](C)CC)[C@@H](C)CC)[C@@H](C)O)C(=O)O	65	88	100		
CC[C@H](C)[C@H](NC(=O)[C@@H](NC(=O)[C@H](CC(=O)O)NC(=O)[C@H](CC(C)C)NC(=O)[C@H](CC(C)C)NC(=O)[C@H](CC(C)C)NC(=O)[C@H](CCCN=C(N)N)NC(=O)[C@H](CC(N)=O)NC(=O)[C@H](CC(N)=O)NC(=O)[C@H](C)NC(=O)[C@H](C)NC(=O)[C@H](CCC(N)=O)NC(=O)[C@H](CCC(N)=O)NC(=O)[C@H](CCCCN)NC(=O)[C@H](CCC(=O)O)NC(=O)[C@H](CCCCN)NC(=O)[C@H](CCC(=O)O)NC(=O)[C@H](CCC(N)=O)NC(=O)[C@H](CCCCN)NC(=O)[C@H](CCC(=O)O)NC(=O)[C@@H](NC(=O)[C@H](CCC(=O)O)NC(=O)[C@@H](NC(=O)[C@H](CCSC)NC(=O)[C@H](CCCCN)NC(=O)[C@H](CCCN=C(N)N)NC(=O)[C@H](CC(C)C)NC(=O)[C@H](CC(C)C)NC(=O)[C@@H](NC(=O)[C@H](Cc1ccccc1)NC(=O)[C@@H]1CCCN1C(=O)[C@H](CC(C)C)NC(=O)[C@H](CC(=O)O)NC(=O)[C@@H](NC(=O)[C@H](CO)NC(=O)[C@@H](NC(=O)[C@@H]1CCCN1C(=O)[C@@H]1CCCN1C(=O)CNC(=O)[C@@H]1CCC(=O)N1)[C@@H](C)CC)[C@@H](C)CC)C(C)C)[C@@H](C)CC)[C@@H](C)CC)[C@@H](C)O)C(=O)O	14	91	81		
CC[C@H](C)[C@H](NC(=O)[C@@H](NC(=O)[C@H](CC(=O)O)NC(=O)[C@H](CC(C)C)NC(=O)[C@H](CC(C)C)NC(=O)[C@H](CC(C)C)NC(=O)[C@H](CCCNC(=N)N)NC(=O)[C@H](CC(N)=O)NC(=O)[C@H](CC(N)=O)NC(=O)[C@H](C)NC(=O)[C@H](C)NC(=O)[C@H](CCC(N)=O)NC(=O)[C@H](CCC(N)=O)NC(=O)[C@H](CCCCN)NC(=O)[C@H](CCC(=O)O)NC(=O)[C@H](CCCCN)NC(=O)[C@H](CCC(=O)O)NC(=O)[C@H](CCC(N)=O)NC(=O)[C@H](CCCCN)NC(=O)[C@H](CCC(=O)O)NC(=O)[C@@H](NC(=O)[C@H](CCC(=O)O)NC(=O)[C@@H](NC(=O)[C@H](CCSC)NC(=O)[C@H](CCCCN)NC(=O)[C@H](CCCNC(=N)N)NC(=O)[C@H](CC(C)C)NC(=O)[C@H](CC(C)C)NC(=O)[C@@H](NC(=O)[C@H](CC(C)C)NC(=O)[C@@H]1CCCN1C(=O)[C@H](CC(C)C)NC(=O)[C@H](CC(=O)O)NC(=O)[C@@H](NC(=O)[C@H](CO)NC(=O)[C@@H](NC(=O)[C@@H]1CCCN1C(=O)[C@@H]1CCCN1C(=O)CNC(=O)[C@@H]1CCC(=O)N1)[C@@H](C)CC)[C@@H](C)CC)C(C)C)[C@@H](C)CC)[C@@H](C)CC)[C@@H](C)O)C(=O)O				5.5	265
CC[C@H](C)[C@H](NC(=O)[C@@H](NC(=O)[C@H](CC(=O)O)NC(=O)[C@H](CC(C)C)NC(=O)[C@H](CC(C)C)NC(=O)[C@H](CC(C)C)NC(=O)[C@H](CCCNC(=N)N)NC(=O)[C@H](CC(N)=O)NC(=O)[C@H](CC(N)=O)NC(=O)[C@H](C)NC(=O)[C@H](C)NC(=O)[C@H](CCC(N)=O)NC(=O)[C@H](CCC(N)=O)NC(=O)[C@H](CCCCN)NC(=O)[C@H](CCC(=O)O)NC(=O)[C@H](CCCCN)NC(=O)[C@H](CCC(=O)O)NC(=O)[C@H](CCC(N)=O)NC(=O)[C@H](CCCCN)NC(=O)[C@H](CCC(=O)O)NC(=O)[C@@H](NC(=O)[C@H](CCC(=O)O)NC(=O)[C@@H](NC(=O)[C@H](CCSC)NC(=O)[C@H](CCCCN)NC(=O)[C@H](CCCNC(=N)N)NC(=O)[C@H](CC(C)C)NC(=O)[C@H](CC(C)C)NC(=O)[C@H](CC(C)C)NC(=O)[C@H](Cc1ccc(O)cc1)NC(=O)[C@@H]1CCCN1C(=O)[C@H](CC(C)C)NC(=O)[C@H](CC(=O)O)NC(=O)[C@@H](NC(=O)[C@H](CO)NC(=O)[C@@H](NC(=O)[C@@H]1CCCN1C(=O)[C@@H]1CCCN1C(=O)CNC(=O)[C@@H]1CCC(=O)N1)[C@@H](C)CC)[C@@H](C)CC)[C@@H](C)CC)[C@@H](C)CC)[C@@H](C)O)C(=O)O				5.2	76.2
CC[C@H](C)[C@H](NC(=O)[C@@H](NC(=O)[C@H](CC(=O)O)NC(=O)[C@H](CC(C)C)NC(=O)[C@H](CC(C)C)NC(=O)[C@H](CC(C)C)NC(=O)[C@H](CCCNC(=N)N)NC(=O)[C@H](CC(N)=O)NC(=O)[C@H](CC(N)=O)NC(=O)[C@H](C)NC(=O)[C@H](C)NC(=O)[C@H](CCC(N)=O)NC(=O)[C@H](CCC(N)=O)NC(=O)[C@H](CCCCN)NC(=O)[C@H](CCC(=O)O)NC(=O)[C@H](CCCCN)NC(=O)[C@H](CCC(=O)O)NC(=O)[C@H](CCC(N)=O)NC(=O)[C@H](CCCCN)NC(=O)[C@H](CCC(=O)O)NC(=O)[C@@H](NC(=O)[C@H](CCC(=O)O)NC(=O)[C@@H](NC(=O)[C@H](CCSC)NC(=O)[C@H](CCCCN)NC(=O)[C@H](CCCNC(=N)N)NC(=O)[C@H](CC(C)C)NC(=O)[C@H](CC(C)C)NC(=O)[C@@H](NC(=O)[C@H](CCC(N)=O)NC(=O)[C@@H]1CCCN1C(=O)[C@H](CC(C)C)NC(=O)[C@H](CC(=O)O)NC(=O)[C@@H](NC(=O)[C@H](CO)NC(=O)[C@@H](NC(=O)[C@@H]1CCCN1C(=O)[C@@H]1CCCN1C(=O)CNC(=O)[C@@H]1CCC(=O)N1)[C@@H](C)CC)[C@@H](C)CC)[C@@H](C)CC)[C@@H](C)CC)[C@@H](C)CC)[C@@H](C)O)C(=O)O				8.5	707
